The record followed here is BindingDB's records for patent US10800778 (Entasis Therapeutics Limited, 2020).

One may read the IC50 as the midpoint of a concentration-inhibition curve.

One experiment deals with Beta-lactamase TEM (Escherichia coli, UniProt P62593). As to the kind of experiment: Inhibition of Beta-Lactamase Enzymes. The method, then:
(§1) A buffer consisting of 0.1 M sodium phosphate (pH 7.0), 10 mM NaHCO3, and 0.005% Triton X-100 was used for all enzymes. The chromogenic substrate nitrocefin (SynGene, Bangalore, India) was used at 100 μM. Enzyme activity was monitored by the 490 nm absorbance increase upon nitrocefin hydrolysis. Assays were performed in clear polystyrene 384-well plates (Greiner Bio-One, Monroe, N.C.). Absorbance was measured for 1 hour at 30-s intervals using a Spectramax absorbance plate reader (Molecular Devices, Sunnyvale, Calif.). Measurement of beta-lactamase inhibition by INHIBITOR employed serial 3-fold dilutions of the inhibitor in assay buffer, ranging from 100 μM to 62.7 pM. A background absorbance progress curve for a control lacking enzyme and inhibitor was subtracted from each progress curve.

The next experiment has as its target Beta-lactamase (Klebsiella pneumoniae, UniProt Q6XEC0). As to the kind of experiment: Inhibition of Beta-Lactamase Enzymes. As for the experimental part:
as §1

Chain of Beta-lactamase TEM (P62593 whole entry): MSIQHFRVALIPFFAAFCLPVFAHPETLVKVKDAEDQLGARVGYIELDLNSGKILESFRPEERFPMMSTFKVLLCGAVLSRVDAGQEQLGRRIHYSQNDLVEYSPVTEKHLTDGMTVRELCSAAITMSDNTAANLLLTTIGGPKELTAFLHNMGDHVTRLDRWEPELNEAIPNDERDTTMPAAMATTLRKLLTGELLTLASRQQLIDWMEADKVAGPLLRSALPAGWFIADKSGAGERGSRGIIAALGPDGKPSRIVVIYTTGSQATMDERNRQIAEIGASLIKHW
Chain of Beta-lactamase (Q6XEC0 whole entry): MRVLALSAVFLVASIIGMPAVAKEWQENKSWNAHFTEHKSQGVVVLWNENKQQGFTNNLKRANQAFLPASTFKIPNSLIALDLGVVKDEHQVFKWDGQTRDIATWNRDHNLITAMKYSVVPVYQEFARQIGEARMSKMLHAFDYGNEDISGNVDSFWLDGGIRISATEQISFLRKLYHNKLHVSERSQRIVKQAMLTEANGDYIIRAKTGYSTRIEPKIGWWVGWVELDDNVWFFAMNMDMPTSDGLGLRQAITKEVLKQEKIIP

In the case of `CC1=C[C@@H]2CN(C(=O)N2O[C@@H](F)C(=O)O)[C@@H]1C(=O)NOC[C@@H]1CCCN1` [US10800778, Example 62], the IC50 on Beta-lactamase TEM is 210 nM; at Beta-lactamase, 870 nM.
